US20240383923A1, “HETEROARYL DERIVATIVE AND USE THEREOF” (VORONOI INC., priority 2022, published 2024)

Legend:
Ba/F3 HER2 WT cells = experiment: Inhibition of transduced Ba/F3 cell proliferation, HER2 WT; format: cell-based; details: Mus musculus, BaF3, 72 hours, CellTiter-Glo
Procedure: (§1) Transduced Ba/F3 cells were cultured by adding 1 μg/mL of puromycin (Invitrogen) to a medium (RPMI-1640) containing 10% fetal bovine serum (FBS). 3,000 Ba/F3 HER2 WT cells were seeded to a white clear bottom 96 well plate (Corning) 24 hours before the Ba/F3 HER2 WT cells were treated with Example compounds. For Ba/F3 HER2 L755S, Ba/F3 HER2 L755P, Ba/F3 HER2 T862A, and Ba/F3 HER2 L869R/T798I cells, 5,000 cells each were seeded to a white clear bottom 96 well plate (Corning) 24 hours before the cells were treated with the compounds. Example Compounds were diluted in dimethylsulfoxide (3-fold diluted, total 11 concentrations) and 0.5 μL each was injected so that the final concentration was 0.2 nM to 10 μM. For the measurement of living cells, the cells were stored at room temperature for 10 minutes using the CellTiter-Glo cell viability reagent (Promega) after 72 hours after the treatment of Example Compounds, and then the luminescence intensity was measured using the reader (SynergyNeo, Biotek). Each test was repeated twice.
(§2) The result value was calculated as a cell growth rate (%) compared to a control group, and the GI50 values were calculated using the software (GraphPad Prism version 8.0), and the results are shown in Table 19 below.

HER2 enzyme = target: T1, HER2 enzyme (Homo sapiens, UniProt P04626); experiment: Biochemical kinase assay for HER2 (Reaction Biology Corp.); details: ATP 10 μM, 3-fold dilution from 10 μM
T1 construct: purchased Reaction Biology Corp. (San Diego, USA); outsourced assay service
T1 sequence (P04626 23-1255): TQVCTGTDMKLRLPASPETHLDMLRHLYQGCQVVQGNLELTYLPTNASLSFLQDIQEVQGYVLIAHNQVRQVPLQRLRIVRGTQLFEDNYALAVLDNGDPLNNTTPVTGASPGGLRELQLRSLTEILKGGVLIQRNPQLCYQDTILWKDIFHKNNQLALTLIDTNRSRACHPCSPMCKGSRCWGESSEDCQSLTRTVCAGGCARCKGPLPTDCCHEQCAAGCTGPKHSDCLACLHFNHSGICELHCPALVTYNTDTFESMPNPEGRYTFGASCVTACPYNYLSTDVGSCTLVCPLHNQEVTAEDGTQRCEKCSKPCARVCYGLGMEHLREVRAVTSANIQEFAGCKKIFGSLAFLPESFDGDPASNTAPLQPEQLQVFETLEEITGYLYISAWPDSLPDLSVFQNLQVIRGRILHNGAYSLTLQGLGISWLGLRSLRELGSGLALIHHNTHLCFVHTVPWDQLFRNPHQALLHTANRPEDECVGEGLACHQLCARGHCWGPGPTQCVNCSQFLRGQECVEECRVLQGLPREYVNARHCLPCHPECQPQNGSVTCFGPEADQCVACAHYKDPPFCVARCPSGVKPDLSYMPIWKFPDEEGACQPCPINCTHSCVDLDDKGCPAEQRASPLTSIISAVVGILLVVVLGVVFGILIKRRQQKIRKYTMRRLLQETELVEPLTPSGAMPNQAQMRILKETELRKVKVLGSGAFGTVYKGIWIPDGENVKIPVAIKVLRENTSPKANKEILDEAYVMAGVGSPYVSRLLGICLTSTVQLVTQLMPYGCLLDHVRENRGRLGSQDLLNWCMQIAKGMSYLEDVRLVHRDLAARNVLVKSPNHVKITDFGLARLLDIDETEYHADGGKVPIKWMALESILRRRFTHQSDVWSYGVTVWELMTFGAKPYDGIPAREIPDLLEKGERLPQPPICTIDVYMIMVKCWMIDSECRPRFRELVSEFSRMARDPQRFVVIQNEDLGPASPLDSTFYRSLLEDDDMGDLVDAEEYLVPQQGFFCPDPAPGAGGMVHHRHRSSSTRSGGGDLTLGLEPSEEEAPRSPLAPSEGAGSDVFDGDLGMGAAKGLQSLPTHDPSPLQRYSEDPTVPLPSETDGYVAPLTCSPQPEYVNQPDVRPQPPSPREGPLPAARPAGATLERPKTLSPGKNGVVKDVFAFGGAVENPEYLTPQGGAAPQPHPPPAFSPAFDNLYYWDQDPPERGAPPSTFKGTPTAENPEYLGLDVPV
Procedure: A biochemical kinase assay for HER2 was conducted through Reaction Biology Corp. (San Diego, USA).

N-87 cancer cells = experiment: Inhibition of N-87 cell proliferation (CellTiter-Glo); format: cell-based; details: N-87 cells, 72 hours
Procedure: N-87 cancer cells were cultured by using RPMI-1640 medium with 10% FBS. The N-87 cancer cells were seeded to a white clear bottom 96 well plate (Corning) at 5,000 cells per well 24 hours before the […] cancer cells were treated with Example Compounds. Example Compounds were diluted in dimethylsulfoxide (5-fold diluted, total 11 concentrations) and 0.5 μL each was injected so that the final concentration was […]. For the measurement of living cells, the cells were stored at room temperature for 10 minutes using the CellTiter-Glo cell viability reagent (Promega) after 72 hours after the treatment of Example Compounds, and then the luminescence intensity was measured using the reader (SynergyNeo, Biotek).
The result value was calculated as a cell growth rate (%) compared to a control group. Graphs were plotted and GI50 values were calculated using the GraphPad Prism version 8.0 program, and the results are shown in Table 18 below.

Ba/F3 HER2 L755P cells = experiment: Inhibition of transduced Ba/F3 cell proliferation, HER2 L755P; format: cell-based; details: Mus musculus, BaF3, 72 hours, CellTiter-Glo
Procedure: as §1, §2

Ba/F3 HER2 T862A cells = experiment: Inhibition of transduced Ba/F3 cell proliferation, HER2 T862A; format: cell-based; details: Mus musculus, BaF3, 72 hours, CellTiter-Glo
Procedure: as §1, §2

BT-474 cancer cells = experiment: Inhibition of BT-474 cell proliferation (CellTiter-Glo); format: cell-based; details: Homo sapiens, BT-474 cells, 120 hours
In short: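 BT-474 cells in RPMI-1640 with 20% FBS, seeded 48 h before dosing with 11 three-fold dilutions (final 0.2 nM to 10 μM). Viability read by CellTiter-Glo luminescence 120 h after treatment, triplicate tests. GI50 derived from growth rate (%) versus control.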

[1] = tested on: Ba/F3 HER2 L869R/T798I cells; experiment: Inhibition of transduced Ba/F3 cell proliferation, HER2 L869R/T798I; format: cell-based; details: Mus musculus, BaF3, 72 hours, CellTiter-Glo
Procedure: as §1, §2

Ba/F3 HER2 L755S cells = experiment: Inhibition of transduced Ba/F3 cell proliferation, HER2 L755S; format: cell-based; details: Mus musculus, BaF3, 72 hours, CellTiter-Glo
Procedure: as §1, §2

COc1cc2ncnc(Nc3cc(Cl)c(Oc4ccn5ncnc5c4)cc3OC)c2cc1NC(=O)/C(F)=C/[C@H]1CCCN1C [Example 128, (R,Z)—N-(4-((4-([1,2,4]triazolo[1,5-a]pyridin-7-yloxy)-5-chloro-2-methoxyphenyl)amino)-7-methoxyquinazolin-6-yl)-2-fluoro-3-(1-methylpyrrolidin-2-yl)acrylamide]
≤ 50 nM: GI50 (Ba/F3 HER2 WT cells) | IC50 (HER2 enzyme) | GI50 (N-87 cancer cells) | GI50 (Ba/F3 HER2 L755P cells) | GI50 (Ba/F3 HER2 T862A cells) | GI50 (BT-474 cancer cells) | GI50 [1] | GI50 (Ba/F3 HER2 L755S cells)

COc1cc2ncnc(Nc3cc(Cl)c(Oc4cccc(F)c4)cc3OC)c2cc1NC(=O)/C(F)=C\[C@H]1CCCN1C [Example 42, (R,E)-N-(4-((5-chloro-4-(3-fluorophenoxy)-2-methoxyphenyl)amino)-7-methoxyquinazolin-6-yl)-2-fluoro-3-(1-methylpyrrolidin-2-yl)acrylamide]
≤ 50 nM: GI50 (Ba/F3 HER2 WT cells) | IC50 (HER2 enzyme) | GI50 (N-87 cancer cells) | GI50 (Ba/F3 HER2 L755P cells) | GI50 (Ba/F3 HER2 T862A cells) | GI50 (BT-474 cancer cells) | GI50 [1] | GI50 (Ba/F3 HER2 L755S cells)
